Results from patent US20130289070A1, “Use of Levocabastine for Modulating Generation of Pro-Inflammatory Cytokines” (Bausch & Lomb Incorporated, priority 2007, published 2013).

Columns and labels:
[1] = tested on: EoL-1 (human eosinophilic leukaemia cell line) cells; experiment: TNF-α-induced cytokine release, EoL-1 cells differentiated with PMA (Luminex); assay type: cell-based; settings: 24 h, Bio1211 vs TNF-α
Method: (§1) EoL-1 (human eosinophilic leukaemia cell line) cells (Saito et al., 1985; Mayumi, 1992) were maintained in RPMI-1640 medium with L-glutamine supplemented with 10% (v/v) FBS at 37° C. in a humidified atmosphere with 5% CO2. Where indicated, 24 h before the experiment 25 ng/mL PMA ((phorbol 12-myristate 13-acetate, purchased from Sigma Aldrich) was added to the medium to induce eosinophil granulation and differentiation (Ohtsu et al., 1993; Zimmermann et al., 2000).
(§2) Half-million cells were aliquoted per point in a 24 well plate; each experiment was performed in triplicate and carried out in parallel with eosinophils differentiated and non differentiated with PMA (25 ng/mL, 24 h). Cells were suspended in low serum medium (RPMI-1640, 0.1% (v/v) FBS). TNF-α was used to induce cytokine secretion as previously described by Steube et al. (2000), and the net release was obtained by comparison to the basal (non-TNF-α treated). In the first experiment we evaluated the concentration and time relation between TNF-α stimulation and cytokine release. Therefore, 5, 10, and 25 ng/mL of TNF-α was administered to the cells at 0, ½, 1, 2, 3, 6, 12 and 24 h (data not shown). An aliquot of 150 μL of supernate was collected for cytokines' analysis. […] Differentiated and non-differentiated EoL-1 cells were exposed from 0.1 to 2.3 mM levocabastine ([…]Levocabastine 0.05% solution eye drops containing cyclodextrins, without benzalkonium chloride), and aliquots of the supernates were collected after 12 and 24 h. The content of cytokines at time zero was estimated by treating the cells with 400 nM calcimycin (A-23187), which is a cytolytic agent that frees all the mediators from the cytoplasmic compartment. In addition, for each experiment we tested the effect of the vehicle, which was added to the wells in a concentration equal to the maximum amount used for drug dilution.
(§3) Samples (supernates 12 and 24 h) in triplicate were analyzed using Luminex 200™ (Luminex, Austin, Tex.) and Beadview software v1.0 (Upstate Cell Signaling Solutions, Temecula, Calif.).
(§4) All data are presented as mean±SEM for the indicated number of experiments. Statistical significance was determined by Newman-Keuls test after ANOVA using GraphPad Prism (version 3.0; GraphPad Software Inc., San Diego, Calif., USA). P-values<0.05 were considered to be significant.

[2] = tested on: EoL-1 (human eosinophilic leukaemia cell line) cells; experiment: TNF-α-induced cytokine release, non-differentiated EoL-1 cells (NO PMA) (Luminex); assay type: cell-based; settings: 24 h, Bio1211 vs TNF-α
Method: as §1, §2, §3, §4

4-((2-methylphenyl)aminocarbonyl)-aminophenyl)acetyl-Leu-Asp-Val-Pro-OH [Bio1211]
P < 0.001: IP-10 (PMA), p of decrement [1] | MCP-1 (PMA), p of decrement [1] | IL-1ra (NO PMA), p of decrement [2] | IL-8 (NO PMA), p of decrement [2] | IP-10 (NO PMA), p of decrement [2]
P < 0.05: IL-1α (PMA), p of decrement [1] | IL-12p40 (PMA), p of decrement [1] | VEGF (PMA), p of decrement [1] | Fractalkine (NO PMA), p of decrement [2] | GM-CSF (NO PMA), p of decrement [2] | IL-6 (NO PMA), p of decrement [2] | IL-12p40 (NO PMA), p of decrement [2]
ns: Fractalkine (PMA), p of decrement [1] | G-CSF (PMA), p of decrement [1] | GM-CSF (PMA), p of decrement [1] | IL-1ra (PMA), p of decrement [1] | IL-1β (PMA), p of decrement [1] | IL-5 (PMA), p of decrement [1] | IL-6 (PMA), p of decrement [1] | IL-7 (PMA), p of decrement [1] | IL-8 (PMA), p of decrement [1] | IL-10 (PMA), p of decrement [1] | MIP-1α (PMA), p of decrement [1] | MIP-1β (PMA), p of decrement [1] | RANTES (PMA), p of decrement [1] | TGF-α (PMA), p of decrement [1] | G-CSF (NO PMA), p of decrement [2] | IL-1α (NO PMA), p of decrement [2] | IL-1β (NO PMA), p of decrement [2] | IL-5 (NO PMA), p of decrement [2] | IL-7 (NO PMA), p of decrement [2] | IL-10 (NO PMA), p of decrement [2] | MCP-1 (NO PMA), p of decrement [2] | MIP-1α (NO PMA), p of decrement [2] | MIP-1β (NO PMA), p of decrement [2] | RANTES (NO PMA), p of decrement [2] | TGF-α (NO PMA), p of decrement [2] | VEGF (NO PMA), p of decrement [2]
